Test in all cases: NCI-60 cell line screen, 48 h
Assay [1] concerns MDA-MB-435.
Assay [2] has as its system OVCAR-3 ovarian.
The test system of assay [3] is HOP-62 NSCLC.
In assay [4] the test system is UACC-62 melanoma.
Assay [5] concerns HT29 colon.
The test system of assay [6] is IGROV1 ovarian.
The subject of assay [7] is NCI-H23 lung.
In assay [8] the test system is HCC-2998 colon.
Assay [9] has as its system HCT-15 colon.
Assay [10] relates to BT-549 breast.

Structures are written as SMILES.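 1) Cells in 96-well plates. 2) Compound, 48 h, 5 concentrations. 3) Linear interpolation between surrounding doses. 4) Unreached endpoint = highest concentration. GI50 marks 50% less growth. TGI is the concentration that stops growth completely.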

For the molecule `CN(C)CCCC1(c2ccc(F)cc2)OCc2cc(-c3csc4ccccc34)ccc21` (centres undefined), the GI50 is 1.73 µM in [1]; 1.73 µM in [2]; 1.57 µM in [3]; 1.69 µM in assay [4]; 1.55 µM in [5]; 1.35 µM in [6]. In addition, the values for the GI50 in [7], in assay [8] and in assay [9] were 1.55 µM, 1.65 µM and 1.64 µM, respectively. Besides, the TGI in assay [1] amounted to 3.19 µM; in [2] it was 3.26 µM; in assay [3], 3.31 µM; in assay [4], 3.13 µM; in [5] it was 3.46 µM; in assay [6], 2.96 µM. Moreover, the TGI came to 3.02 µM in assay [7], 3.14 µM in assay [8] and 3.07 µM in assay [9].

With `O=C(CCN1CCOCC1)Nc1ccc(Cn2nnc3c2C(=O)c2nnn(Cc4ccc(NC(=O)CCN5CCOCC5)cc4)c2C3=O)cc1`, the GI50 is 0.324 µM in assay [1]; 0.333 µM in assay [2]; 57.7 µM in [3]; 1.53 µM in assay [4]; 2.87 µM in [10]; 1.24 µM in assay [5]. Besides, the GI50 is 1.43 µM in [7], 2.62 µM in assay [8] and greater than 100 µM in assay [9]. The TGI in assay [1] was 0.799 µM; in assay [2], 1.39 µM; in [3], greater than 100 µM; in assay [4], 3.14 µM; in [10], 8.77 µM; in assay [5], greater than 100 µM. The TGI in assay [7] is 5.52 µM; in [8] it was 6.68 µM; in [9], greater than 100 µM.

Consider `O=[N+]([O-])c1ccc(/C=C(/c2ccc([N+](=O)[O-])o2)S(=O)(=O)c2ccccc2)cc1`, for which the TGI in assay [1] is greater than 100 µM; in [2] it was greater than 100 µM; in assay [3], greater than 100 µM; in assay [4], 75.7 µM; in assay [10] it was greater than 100 µM; in assay [5] it was greater than 100 µM. Moreover, the TGI was greater than 100 µM in [6], greater than 100 µM in assay [7] and 88.7 µM in [9].

With `O=C(NO)c1ccc(CNc2cccc3nc(C4CC4)n(-c4ccccc4)c(=O)c23)cc1`, the GI50 is 1.86 µM in assay [1]; 1.92 µM in assay [2]; 1.89 µM in assay [3]; 1.96 µM in assay [4]; 3.24 µM in [10]; 2.16 µM in [5]. Besides, the GI50 in [6] was 1.44 µM; in assay [8] it was 1.81 µM; in [9], 1.98 µM. The TGI in assay [1] was 3.91 µM; in assay [2], 5.51 µM; in assay [3], 4.72 µM; in assay [4], 4.66 µM; in assay [10] it was 14.3 µM; in [5] it was 5.62 µM. Also, the TGI was found to be 3.01 µM in [6], 3.44 µM in assay [8] and 6.33 µM in assay [9].

Regarding `O=C1c2ccccc2-c2c1c1c(O)cccc1n2Cc1ccccc1`, the GI50 in assay [1] is 19.1 µM; in [2], 4.17 µM; in [3] it was 12.1 µM; in assay [4], 7.35 µM; in assay [10], 20.5 µM; in [5] it was 38.2 µM. The GI50 in assay [7] was 5.67 µM; in [8], 12.7 µM; in [9], 27.5 µM. In addition, the TGI in [1] was greater than 100 µM; in [2], 17.3 µM; in [3], 29.8 µM; in assay [4], 27.2 µM; in assay [10], 56.1 µM; in [5], greater than 100 µM. The TGI in [7] was 29.7 µM; in [8] it was 39.1 µM; in assay [9], greater than 100 µM.

In the case of `COc1cc2c(Oc3ccc(-c4cnc(Nc5ccc(F)cc5)n(C)c4=O)cc3F)ccnc2cc1OCCCN1CCOCC1`, the GI50 in [2] was 1.64 µM; in [10] it was 1.86 µM; in [5] it was 0.311 µM; in assay [6] it was 0.646 µM; in assay [7] it was 1.15 µM; in assay [8], 1.48 µM. Moreover, the GI50 in assay [9] was 1.18 µM. The TGI in assay [2] was found to be 3.15 µM; in assay [10], 3.49 µM; in assay [5], 1.64 µM; in assay [6], 2.33 µM; in [7], 2.75 µM; in assay [8] it was 2.94 µM. Further, the TGI in assay [9] was 2.75 µM.

On to `COc1ccc(-n2c(=O)c3ccccc3n(Cc3ccc(C(=O)NO)cc3)c2=O)cc1`, for which the GI50 in assay [1] was 1.74 µM; in assay [2], 2.07 µM; in assay [3], 2.29 µM; in assay [4] it was 1.8 µM; in [10], 2.08 µM; in assay [5] it was 2.97 µM. Moreover, the GI50 is 1.78 µM in assay [7], 1.81 µM in assay [8] and 3.22 µM in assay [9]. Further, the TGI in assay [1] was 3.56 µM; in assay [2], 5.95 µM; in assay [3], 6.19 µM; in assay [4], 4.28 µM; in assay [10], 4.91 µM; in assay [5], 22.6 µM. The TGI in assay [7] is 4.29 µM; in assay [8] it was 3.58 µM; in [9], 16.2 µM.

With `O=C(O)c1cn(C2CC2)c2cc(N3CCN(C(=O)N(c4ccccc4)c4nc(-c5ccccc5)cs4)CC3)c(F)cc2c1=O`, the GI50 in [3] is 0.462 µM; in assay [10], 0.349 µM; in [6] it was 0.393 µM; in assay [8], 0.595 µM; in assay [9], 0.308 µM. Further, the TGI is greater than 45.4 µM in assay [3]; 6.81 µM in assay [10]; greater than 100 µM in assay [6]; greater than 100 µM in assay [8]; greater than 100 µM in assay [9].

For the molecule `C=CCN(CC=C)Cc1c[nH]c2ccccc12`, the GI50 is 10.9 µM in assay [1]; 18.1 µM in assay [4]; 2.31 µM in assay [10]; 41.9 µM in assay [5]; 16 µM in assay [6]; 14 µM in assay [7]. Further, the GI50 in assay [8] was 27.8 µM; in [9], 32.8 µM. In addition, the TGI in assay [1] was 32.9 µM; in [4] it was 54.1 µM; in [10], 8.33 µM; in [5], greater than 100 µM; in assay [6] it was 42.6 µM; in assay [7], 52.8 µM. The values for the TGI in [8] and in [9] were 72.7 µM and greater than 100 µM, respectively.

Source of the values: PubChem BioAssay (NCI).
